# Species on record: Rattus norvegicus
# Test: DrugMatrix - Regimen: Daily Repeat
# Format: toxicity, organism-based, Sprague-Dawley
# Parameters: regimen Daily Repeat, gender Male, age 6-8 weeks
# Conditions: in vivo, po, route oral GAVAGE, vehicle 100 % WATER; for ABSOLUTE BASOPHIL / ABSOLUTE EOSINOPHIL / ABSOLUTE LYMPHOCYTE / ABSOLUTE MONOCYTE / ABSOLUTE SEGMENTED NEUTROPHIL / BASOPHIL / EOSINOPHIL / ERYTHROCYTE COUNT / HEMATOCRIT / HEMOGLOBIN / LEUKOCYTE COUNT / LYMPHOCYTE / MEAN CORPUSCULAR HEMOGLOBIN / MEAN CORPUSCULAR HEMOGLOBIN CONCENTRATION / MEAN CORPUSCULAR VOLUME / MONOCYTE / NEUTROPHIL / NUCLEATED RED BLOOD CELLS: tissue Blood; for ALANINE AMINOTRANSFERASE / ALKALINE PHOSPHATASE / ASPARTATE AMINOTRANSFERASE / BLOOD UREA NITROGEN / CARBON DIOXIDE / CHLORIDE / CHOLESTEROL / CREATINE PHOSPHOKINASE / CREATININE / GLUCOSE / LACTATE DEHYDROGENASE / LIPASE / PHOSPHORUS / POTASSIUM / SODIUM / TOTAL BILIRUBIN / TOTAL PROTEIN / URIC ACID: tissue Plasma
# [1] = 0 mg/kg, 72 h, dose level Control, time 3 day
# [2] = 0 mg/kg, 120 h, dose level Control, time 5 day
# [3] = 18 mg/kg, 72 h, dose level Low, time 3 day
smiles,measurement,setting,value
CN(C)CCCN1c2ccccc2Sc2ccc(Cl)cc21 [CHLORPROMAZINE],ABSOLUTE BASOPHIL,[1],0 CELLS/uL
same,ABSOLUTE EOSINOPHIL,[1],108.67 CELLS/uL
same,ABSOLUTE LYMPHOCYTE,[1],10696 CELLS/uL
same,ABSOLUTE MONOCYTE,[1],216.67 CELLS/uL
same,ABSOLUTE SEGMENTED NEUTROPHIL,[1],1045.33 CELLS/uL
same,BASOPHIL,[1],0%
same,EOSINOPHIL,[1],1%
same,ERYTHROCYTE COUNT,[1],5.87 x10E6/uL
same,HEMATOCRIT,[1],38.5%
same,HEMOGLOBIN,[1],13.6 G/DL
same,LEUKOCYTE COUNT,[1],12.07 x10E3/uL
same,LYMPHOCYTE,[1],88.33%
same,MEAN CORPUSCULAR HEMOGLOBIN,[1],23.47 pg
same,MEAN CORPUSCULAR HEMOGLOBIN CONCENTRATION,[1],35.7 G/DL
same,MEAN CORPUSCULAR VOLUME,[1],65.63 fL
same,MONOCYTE,[1],2%
same,NEUTROPHIL,[1],8.67%
same,NUCLEATED RED BLOOD CELLS,[1],0 /100WBC
same,ALANINE AMINOTRANSFERASE,[1],60.67 u/L
same,ALKALINE PHOSPHATASE,[1],377.67 u/L
same,ASPARTATE AMINOTRANSFERASE,[1],85.33 u/L
same,BLOOD UREA NITROGEN,[1],15 mg/dL
same,CARBON DIOXIDE,[1],37 mmol/L
same,CHLORIDE,[1],97.67 MEQ/L
same,CHOLESTEROL,[1],70.67 mg/dL
same,CREATINE PHOSPHOKINASE,[1],361.67 u/L
same,CREATININE,[1],0.18 mg/dL
same,GLUCOSE,[1],154 mg/dL
same,LACTATE DEHYDROGENASE,[1],99 u/L
same,LIPASE,[1],12.67 u/L
same,PHOSPHORUS,[1],9.53 mg/dL
same,POTASSIUM,[1],5.55 MEQ/L
same,SODIUM,[1],143.1 MEQ/L
same,TOTAL BILIRUBIN,[1],0.2 mg/dL
same,TOTAL PROTEIN,[1],5.97 G/DL
same,URIC ACID,[1],0.77 mg/dL
same,ABSOLUTE BASOPHIL,[2],0 CELLS/uL
same,ABSOLUTE EOSINOPHIL,[2],0 CELLS/uL
same,ABSOLUTE LYMPHOCYTE,[2],9535 CELLS/uL
same,ABSOLUTE MONOCYTE,[2],182 CELLS/uL
same,ABSOLUTE SEGMENTED NEUTROPHIL,[2],783 CELLS/uL
same,BASOPHIL,[2],0%
same,EOSINOPHIL,[2],0%
same,ERYTHROCYTE COUNT,[2],5.35 x10E6/uL
same,HEMATOCRIT,[2],34.17%
same,HEMOGLOBIN,[2],13.17 G/DL
same,LEUKOCYTE COUNT,[2],10.5 x10E3/uL
same,LYMPHOCYTE,[2],89.67%
same,MEAN CORPUSCULAR HEMOGLOBIN,[2],24.67 pg
same,MEAN CORPUSCULAR HEMOGLOBIN CONCENTRATION,[2],38.57 G/DL
same,MEAN CORPUSCULAR VOLUME,[2],63.9 fL
same,MONOCYTE,[2],1.67%
same,NEUTROPHIL,[2],8.67%
same,NUCLEATED RED BLOOD CELLS,[2],0 /100WBC
same,ALANINE AMINOTRANSFERASE,[2],46.67 u/L
same,ALKALINE PHOSPHATASE,[2],343.67 u/L
same,ASPARTATE AMINOTRANSFERASE,[2],71 u/L
same,BLOOD UREA NITROGEN,[2],11.67 mg/dL
same,CARBON DIOXIDE,[2],27 mmol/L
same,CHLORIDE,[2],105.33 MEQ/L
same,CHOLESTEROL,[2],70.67 mg/dL
same,CREATINE PHOSPHOKINASE,[2],208.67 u/L
same,CREATININE,[2],0.1 mg/dL
same,GLUCOSE,[2],161.33 mg/dL
same,LACTATE DEHYDROGENASE,[2],58 u/L
same,LIPASE,[2],9.33 u/L
same,PHOSPHORUS,[2],12.7 mg/dL
same,POTASSIUM,[2],5.59 MEQ/L
same,SODIUM,[2],147.1 MEQ/L
same,TOTAL BILIRUBIN,[2],0.17 mg/dL
same,TOTAL PROTEIN,[2],5.97 G/DL
same,URIC ACID,[2],0.73 mg/dL
same,ABSOLUTE BASOPHIL,[3],0 CELLS/uL
same,ABSOLUTE EOSINOPHIL,[3],0 CELLS/uL
same,ABSOLUTE LYMPHOCYTE,[3],8093.33 CELLS/uL
same,ABSOLUTE MONOCYTE,[3],80.67 CELLS/uL
same,ABSOLUTE SEGMENTED NEUTROPHIL,[3],392.67 CELLS/uL
same,BASOPHIL,[3],0%
same,EOSINOPHIL,[3],0%
same,ERYTHROCYTE COUNT,[3],5.16 x10E6/uL
same,HEMATOCRIT,[3],34.47%
same,HEMOGLOBIN,[3],13.4 G/DL
same,LEUKOCYTE COUNT,[3],8.57 x10E3/uL
same,LYMPHOCYTE,[3],94.33%
same,MEAN CORPUSCULAR HEMOGLOBIN,[3],25.97 pg
same,MEAN CORPUSCULAR HEMOGLOBIN CONCENTRATION,[3],38.87 G/DL
same,MEAN CORPUSCULAR VOLUME,[3],66.8 fL
same,MONOCYTE,[3],1%
same,NEUTROPHIL,[3],4.67%
same,NUCLEATED RED BLOOD CELLS,[3],0 /100WBC
same,ALANINE AMINOTRANSFERASE,[3],60.67 u/L
same,ALKALINE PHOSPHATASE,[3],286 u/L
same,ASPARTATE AMINOTRANSFERASE,[3],101 u/L
same,BLOOD UREA NITROGEN,[3],15 mg/dL
same,CARBON DIOXIDE,[3],38 mmol/L
same,CHLORIDE,[3],98 MEQ/L
same,CHOLESTEROL,[3],65.67 mg/dL
same,CREATINE PHOSPHOKINASE,[3],499.33 u/L
same,CREATININE,[3],0.32 mg/dL
same,GLUCOSE,[3],131 mg/dL
same,LACTATE DEHYDROGENASE,[3],79 u/L
same,LIPASE,[3],10 u/L
same,PHOSPHORUS,[3],8.37 mg/dL
same,POTASSIUM,[3],5.57 MEQ/L
same,SODIUM,[3],142.3 MEQ/L
same,TOTAL BILIRUBIN,[3],0.23 mg/dL
same,TOTAL PROTEIN,[3],5.97 G/DL
